Assay [1] relates to MDA-MB-468. The assay is described as follows: Induction of apoptosis in human MDA-MB-468 cells assessed as fold increase in caspase-3 level incubated for 2 hrs by ELISA relative to control. The format is functional. A general note: An ELISA detects its analyte on a solid surface through an enzyme-linked reagent.
Assay [2] has as its system MDA-MB-468. The assay is described as follows: Induction of cell cycle arrest in human MDA-MB-468 cells assessed as decrease in cell population at G2/M phase at IC50 incubated for 24 hrs by RNase/PI staining based flow cytometry relative to control. Format: functional. Details: scale not given: the % may be the effect or the level left. A general note: A flow cytometer gives signals particle by particle.

The test system of assay [3] is MDA-MB-468. The assay is described as follows: Induction of cell cycle arrest in human MDA-MB-468 cells assessed as accumulation of cells at G0 to G1 phase at IC50 incubated for 24 hrs by RNase/PI staining based flow cytometry (reference value: 59.02 %). The format is functional.
Assay [4] relates to MDA-MB-468. Kind of assay: Induction of apoptosis in human MDA-MB-468 cells assessed as fold increase in total apoptotic cells at IC50 incubated for 24 hrs by Annexin V/PI staining based flow cytometry relative to control. Format: functional.
The subject of assay [5] is HUVEC. Kind of assay: Antiangiogenic activity against HUVEC cells assessed as wound closure at IC50 incubated for 72 hrs by wound healing assay (reference value: 98.518 %). Format: functional, Homo sapiens.
The subject of assay [6] is MDA-MB-468. The assay is described as follows: Induction of apoptosis in human MDA-MB-468 cells assessed as late apoptotic cells at IC50 incubated for 24 hrs by Annexin V/PI staining based flow cytometry (reference value: 0.17 %). The format is functional.
Assay [7] has as its system MDA-MB-468. The assay is described as follows: Induction of apoptosis in human MDA-MB-468 cells assessed as total apoptotic cells at IC50 incubated for 24 hrs by Annexin V/PI staining based flow cytometry (reference value: 2.28 %). Format: functional.
For assay [8], the system named is MDA-MB-468. The assay is described as follows: Induction of cell cycle arrest in human MDA-MB-468 cells assessed as decrease in cell population at G0 to G1 phase at IC50 incubated for 24 hrs by RNase/PI staining based flow cytometry relative to control. On the set-up: scale not given: the % may be the effect or the level left. The format is functional.
Assay [9] relates to MDA-MB-468. Kind of assay: Induction of cell cycle arrest in human MDA-MB-468 cells assessed as accumulation of cells at G2/M phase at IC50 incubated for 24 hrs by RNase/PI staining based flow cytometry (reference value: 16.13 %). Format: functional.
Assay [10] relates to MDA-MB-468. Kind of assay: Induction of cell cycle arrest in human MDA-MB-468 cells assessed as accumulation of cells at S phase at IC50 incubated for 24 hrs by RNase/PI staining based flow cytometry (reference value: 24.85 %). The format is functional.
The test system of assay [11] is HUVEC. The assay is described as follows: Antiangiogenic activity against HUVEC cells assessed as decrease in healing rate at IC50 incubated for 72 hrs by wound healing assay relative to control. The format is functional, Homo sapiens. Details: scale not given: the % may be the effect or the level left.
The test system of assay [12] is MDA-MB-468. Kind of assay: Induction of apoptosis in human MDA-MB-468 cells assessed as early apoptotic cells at IC50 incubated for 24 hrs by Annexin V/PI staining based flow cytometry (reference value: 0.52 %). Format: functional.

As to `Cc1nc2c(cnn2-c2ccccc2)c(=O)n1-c1ccc(NC(=O)c2ccc(F)cc2)cc1`, the “fold change (FC)” value with MDA-MB-468 [1] is given as 7.32; in the assay on MDA-MB-468 [4] it was 18.98. Also, the Activity in the assay on MDA-MB-468 [2] is listed as 43.46%; in the assay on MDA-MB-468 [3] it was 52.86%; in the assay with HUVEC [5] it was 75.555%; in the assay with MDA-MB-468 [6] it was 22.49%; with MDA-MB-468 [7], 43.28%; with MDA-MB-468 [8], 10.43%. The Activity with MDA-MB-468 [9] came to 9.12%; with MDA-MB-468 [10], 38.02%; with HUVEC [11] it was 23%; in the assay on MDA-MB-468 [12], 15.85%.

(Values after ChEMBL document CHEMBL5356993, “Novel pyrazolo[3,4-d]pyrimidine derivatives: design, synthesis, anticancer evaluation, VEGFR-2 inhibition, and antiangiogenic activity” (RSC Med Chem, 2023).)
